# Assays:
# Assay in all cases: relative viability (nuclei count vs DMSO), 5 days (fraction); higher = more cells survive
# COR-L 105 = tested on: COR-L 105
# Method in brief: (§1)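 Lung cancer cell lines were seeded in 1536-well plates and dosed by pin tool the next day, with either a single drug or a fixed anchor-drug dose combined with five library-drug doses (not always all listed) spaced in √10 steps. Five days later, one step fixed the cells and stained their nuclei (final 0.05% Triton X-100, 1% formaldehyde, 1 ug/ml Hoechst), and nuclei were counted on 4× images. Relative viability is the nuclei count in treated wells divided by the count in vehicle wells, and each value is the median of duplicate plates.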
# SK-LU-1 = tested on: SK-LU-1
# Method in brief: as §1
# HCC-366 = tested on: HCC-366
# Method in brief: as §1
# NCI-H1944 = tested on: NCI-H1944
# Method in brief: as §1
# NCI-H1975 = tested on: NCI-H1975
# Method in brief: as §1
# HCC-78 = tested on: HCC-78
# Method in brief: as §1
# HCC-15 = tested on: HCC-15
# Method in brief: as §1
# NCI-H358 = tested on: NCI-H358
# Method in brief: as §1
# HARA = tested on: HARA
# Method in brief: as §1
# HCC-44 = tested on: HCC-44
# Method in brief: as §1
# COR-L23 = tested on: COR-L23
# Method in brief: as §1
# LCLC-103H = tested on: LCLC-103H
# Method in brief: as §1
# NCI-H2405 = tested on: NCI-H2405
# Method in brief: as §1
# NCI-H2085 = tested on: NCI-H2085
# Method in brief: as §1
# UMC-11 = tested on: UMC-11
# Method in brief: as §1
# NCI-H661 = tested on: NCI-H661
# Method in brief: as §1
# HCC-827 = tested on: HCC-827
# Method in brief: as §1
# NCI-H727 = tested on: NCI-H727
# Method in brief: as §1
# NCI-H1437 = tested on: NCI-H1437
# Method in brief: as §1
# NCI-H1395 = tested on: NCI-H1395
# Method in brief: as §1
# NCI-H2023 = tested on: NCI-H2023
# Method in brief: as §1
# EPLC-272H = tested on: EPLC-272H
# Method in brief: as §1
structure (smiles),measurement,setting,value
O=C(O)CCCCC(CCSCc1ccccc1)SCc1ccccc1 (stereo not drawn) [CPI-613] + Cc1cc(Nc2cc(N3CCN(C)CC3)nc(Sc3ccc(NC(=O)C4CC4)cc3)n2)n[nH]1 [Tozasertib] (partner 0.1 µM),relative viability,COR-L 105; first compound 5 µM,0.288
same,relative viability,COR-L 105; first compound 15.81 µM,0.348
same,relative viability,COR-L 105; first compound 50 µM,0.321
same,relative viability,COR-L 105; first compound 158.11 µM,0.321
same,relative viability,COR-L 105; first compound 500 µM,0.137
same,relative viability,SK-LU-1; first compound 5 µM,0.321
same,relative viability,SK-LU-1; first compound 15.81 µM,0.244
same,relative viability,SK-LU-1; first compound 50 µM,0.299
same,relative viability,SK-LU-1; first compound 158.11 µM,0.25
same,relative viability,SK-LU-1; first compound 500 µM,0.195
same,relative viability,HCC-366; first compound 5 µM,0.0925
same,relative viability,HCC-366; first compound 15.81 µM,0.33
same,relative viability,HCC-366; first compound 50 µM,0.156
same,relative viability,HCC-366; first compound 158.11 µM,0.0259
same,relative viability,HCC-366; first compound 500 µM,0.0032
same,relative viability,NCI-H1944; first compound 5 µM,0.264
same,relative viability,NCI-H1944; first compound 15.81 µM,0.233
same,relative viability,NCI-H1944; first compound 50 µM,0.268
same,relative viability,NCI-H1944; first compound 158.11 µM,0.195
same,relative viability,NCI-H1944; first compound 500 µM,0.127
same,relative viability,NCI-H1975; first compound 5 µM,0.7
same,relative viability,NCI-H1975; first compound 15.81 µM,0.639
same,relative viability,NCI-H1975; first compound 50 µM,0.676
same,relative viability,NCI-H1975; first compound 158.11 µM,0.324
same,relative viability,NCI-H1975; first compound 500 µM,0.233
same,relative viability,HCC-78; first compound 5 µM,0.46
same,relative viability,HCC-78; first compound 15.81 µM,0.402
same,relative viability,HCC-78; first compound 50 µM,0.408
same,relative viability,HCC-78; first compound 158.11 µM,0.433
same,relative viability,HCC-78; first compound 500 µM,0.405
same,relative viability,HCC-15; first compound 5 µM,0.514
same,relative viability,HCC-15; first compound 15.81 µM,0.367
same,relative viability,HCC-15; first compound 50 µM,0.369
same,relative viability,HCC-15; first compound 158.11 µM,0.29
same,relative viability,HCC-15; first compound 500 µM,0.112
same,relative viability,NCI-H358; first compound 15.81 µM,0.113
same,relative viability,NCI-H358; first compound 50 µM,0.0981
same,relative viability,NCI-H358; first compound 158.11 µM,0.0576
same,relative viability,NCI-H358; first compound 500 µM,0.0347
same,relative viability,HARA; first compound 15.81 µM,0.117
same,relative viability,HARA; first compound 50 µM,0.0973
same,relative viability,HARA; first compound 158.11 µM,0.0946
same,relative viability,HARA; first compound 500 µM,0.0096
same,relative viability,HCC-44; first compound 5 µM,0.936
same,relative viability,HCC-44; first compound 15.81 µM,0.845
same,relative viability,HCC-44; first compound 50 µM,0.969
same,relative viability,HCC-44; first compound 158.11 µM,0.322
same,relative viability,HCC-44; first compound 500 µM,0.0777
same,relative viability,COR-L23; first compound 5 µM,0.208
same,relative viability,COR-L23; first compound 15.81 µM,0.145
same,relative viability,COR-L23; first compound 50 µM,0.192
same,relative viability,COR-L23; first compound 158.11 µM,0.11
same,relative viability,COR-L23; first compound 500 µM,0.0434
same,relative viability,LCLC-103H; first compound 5 µM,0.441
same,relative viability,LCLC-103H; first compound 15.81 µM,0.389
same,relative viability,LCLC-103H; first compound 50 µM,0.47
same,relative viability,LCLC-103H; first compound 158.11 µM,0.387
same,relative viability,LCLC-103H; first compound 500 µM,0.424
same,relative viability,NCI-H2405; first compound 5 µM,0.75
same,relative viability,NCI-H2405; first compound 15.81 µM,0.616
same,relative viability,NCI-H2405; first compound 50 µM,0.625
same,relative viability,NCI-H2405; first compound 158.11 µM,0.554
same,relative viability,NCI-H2405; first compound 500 µM,0.533
same,relative viability,NCI-H2085; first compound 5 µM,0.769
same,relative viability,NCI-H2085; first compound 15.81 µM,0.683
same,relative viability,NCI-H2085; first compound 50 µM,0.734
same,relative viability,NCI-H2085; first compound 158.11 µM,0.386
same,relative viability,NCI-H2085; first compound 500 µM,0.105
same,relative viability,UMC-11; first compound 5 µM,0.189
same,relative viability,UMC-11; first compound 15.81 µM,0.195
same,relative viability,UMC-11; first compound 50 µM,0.183
same,relative viability,UMC-11; first compound 158.11 µM,0.127
same,relative viability,UMC-11; first compound 500 µM,0.116
same,relative viability,NCI-H661; first compound 5 µM,0.358
same,relative viability,NCI-H661; first compound 15.81 µM,0.324
same,relative viability,NCI-H661; first compound 50 µM,0.348
same,relative viability,NCI-H661; first compound 158.11 µM,0.331
same,relative viability,NCI-H661; first compound 500 µM,0.203
same,relative viability,HCC-827; first compound 5 µM,0.451
same,relative viability,HCC-827; first compound 15.81 µM,0.388
same,relative viability,HCC-827; first compound 50 µM,0.409
same,relative viability,HCC-827; first compound 158.11 µM,0.375
same,relative viability,HCC-827; first compound 500 µM,0.292
same,relative viability,NCI-H727; first compound 5 µM,0.557
same,relative viability,NCI-H727; first compound 15.81 µM,0.697
same,relative viability,NCI-H727; first compound 50 µM,0.685
same,relative viability,NCI-H727; first compound 158.11 µM,0.369
same,relative viability,NCI-H727; first compound 500 µM,0.455
same,relative viability,NCI-H1437; first compound 5 µM,0.374
same,relative viability,NCI-H1437; first compound 15.81 µM,0.39
same,relative viability,NCI-H1437; first compound 50 µM,0.407
same,relative viability,NCI-H1437; first compound 158.11 µM,0.156
same,relative viability,NCI-H1437; first compound 500 µM,0.131
same,relative viability,NCI-H1395; first compound 5 µM,0.691
same,relative viability,NCI-H1395; first compound 15.81 µM,0.632
same,relative viability,NCI-H1395; first compound 50 µM,0.653
same,relative viability,NCI-H1395; first compound 158.11 µM,0.752
same,relative viability,NCI-H1395; first compound 500 µM,0.612
same,relative viability,NCI-H2023; first compound 5 µM,0.359
same,relative viability,NCI-H2023; first compound 15.81 µM,0.234
same,relative viability,NCI-H2023; first compound 50 µM,0.312
same,relative viability,NCI-H2023; first compound 158.11 µM,0.0417
same,relative viability,NCI-H2023; first compound 500 µM,0.0077
same,relative viability,EPLC-272H; first compound 5 µM,0.285
same,relative viability,EPLC-272H; first compound 15.81 µM,0.279
same,relative viability,EPLC-272H; first compound 50 µM,0.242
same,relative viability,EPLC-272H; first compound 158.11 µM,0.0813
same,relative viability,EPLC-272H; first compound 500 µM,0.0387

# From the supplement of paper PMC10307832
